Reference: patent publication US9868728B2, “Quinazoline derivatives, compositions, and uses related thereto” (Emory University, priority 2010, dated 2018)

Target: T1, NOX2 (Homo sapiens, UniProt P04839)
T1 construct: isolated plasma membranes from human neutrophils as a source for Nox2-p22phox; from tissue; host or cells: Plasma membranes of human neutrophils (Nox2-p22phox); cytosolic factors recombinant from E. coli
T1 sequence (P04839 2-570 limits assumed): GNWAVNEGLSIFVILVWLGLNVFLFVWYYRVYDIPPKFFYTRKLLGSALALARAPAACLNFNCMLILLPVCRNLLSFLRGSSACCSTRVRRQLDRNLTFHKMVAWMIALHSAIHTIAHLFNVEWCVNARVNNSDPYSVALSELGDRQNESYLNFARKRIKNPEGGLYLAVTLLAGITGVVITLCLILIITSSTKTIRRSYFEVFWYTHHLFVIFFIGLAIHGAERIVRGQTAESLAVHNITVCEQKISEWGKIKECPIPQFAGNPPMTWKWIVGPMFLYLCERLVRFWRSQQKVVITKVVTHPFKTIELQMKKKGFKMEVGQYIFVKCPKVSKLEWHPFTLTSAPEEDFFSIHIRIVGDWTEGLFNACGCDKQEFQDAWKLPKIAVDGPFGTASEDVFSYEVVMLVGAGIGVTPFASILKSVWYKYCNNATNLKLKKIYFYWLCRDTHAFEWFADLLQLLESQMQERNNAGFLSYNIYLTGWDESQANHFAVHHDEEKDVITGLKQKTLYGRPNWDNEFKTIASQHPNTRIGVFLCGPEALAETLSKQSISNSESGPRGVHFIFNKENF
T1 sequence (P13498 2-195 partner limits assumed): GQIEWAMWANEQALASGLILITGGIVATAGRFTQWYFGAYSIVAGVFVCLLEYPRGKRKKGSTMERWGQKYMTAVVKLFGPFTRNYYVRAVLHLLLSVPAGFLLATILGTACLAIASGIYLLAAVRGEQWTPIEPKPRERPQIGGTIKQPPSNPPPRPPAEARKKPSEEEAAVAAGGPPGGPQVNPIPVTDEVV
Test: Nox2 cell-free assay (LO12 luminescence)
Assay type: biochemical
Conditions: Nox2 cell-free system; for IC50: read-out: NOX2 IC50 (concentration giving half-maximal inhibition); for Emax: read-out: % inhibition (maximum inhibition achieved at a very high concentration of the compound)
Protocol: The following compounds were tested according to the procedures provided in the experimental section. Assays were carried out using the Nox2 cell-free system. The IC50 value is the concentration giving half-maximal inhibition, while the “% inhibition” shown in parentheses is the maximum inhibition achieved at a very high concentration of the compound. 100% refers to complete inhibition within experimental error of the assay.
In certain assays a Cell-Free recombinant NOX-2 system (consisting of isolated plasma membranes from human neutrophils as a source for Nox2-p22phox, supplemented with recombinant p47phox, p67phox and Rac1Q61L (activated Rac), expressed in and isolated from of E. coli. LO12 luminescence was used as a readout to monitor enzymatic activity.
Plasma membranes were prepared from human neutrophils, which express large amounts of Nox2 and stored at −80 C until use. Membranes are mixed with recombinant, purified cytosolic regulatory proteins (p67Np47 chimera, and constitutively active Rac1 mutant Q61) and FAD, along with varying concentrations of compound, and LO12, which luminesces when it reacts with ROSvi. The reaction is started by addition of NADPH and SDS (an artificial stimulus for Nox2). See Curnutte et al., (1987) J. Biol. Chem. 262: 6450-6452.

| Compound | IC50 [µM] | Emax (value in parentheses) [%] | NOX2 IC50 (concentration giving half-maximal inhibition) | % inhibition (maximum inhibition achieved at a very high concentration of the compound) (value in parentheses) [%] |
| --- | --- | --- | --- | --- |
| CCOc1cc2c(=O)n(N)c(=S)[nH]c2cc1OC [AS2-001] | 1 | – | – | – |
| Nn1c(=S)[nH]c2cc3c(cc2c1=O)OCCO3 [AS2-014a] | 0.6 | – | – | – |
| Nn1c(=S)[nH]c2cc3c(cc2c1=O)OCO3 [AS2-014b] | 0.6 | – | – | – |
| COc1cc2[nH]c(=S)n(N)c(=O)c2cc1OC [AS-261A, 3-Amino-6,7-dimethoxy-2-thioxo-2,3-dihydroquinazolin-4(1H)-one] | 0.2 | – | – | – |
| COC(=O)c1ccc2c(=O)n(N)c(=S)[nH]c2c1 [AS-261B] | 0.5 | – | – | – |
| Cc1ccc(-c2csc(NC(=O)CSc3nc4ccccc4c(=O)n3CCCN(C)C)n2)cc1 [Sample T5306350] | > 10 | 90 | – | – |
| CC(Sc1nc2ccccc2c(=O)n1CCCO)C(=O)Nc1nc(-c2ccccc2)cs1 (stereo not shown) [Sample T5826778] | > 10 | 90 | – | – |
| O=C(CSc1nc2ccccc2c(=O)n1CCCO)Nc1nc(-c2cc(F)ccc2F)cs1 [Sample T5837596] | > 10 | 20 | – | – |
| CN(C)CCCn1c(=S)[nH]c2ccccc2c1=O [TG6-17-2] | 6.5 | 60 | – | – |
| Cc1csc(NC(=O)CSc2nc3ccccc3c(=O)n2CCCN(C)C)n1 [TG6-18] | > 10 | – | – | – |
| CN(C)CCCn1c(SCC(=O)Nc2cc(-c3ccc(F)cc3)n[nH]2)nc2ccccc2c1=O [TG6-20] | 4.5 | 90 | – | – |
| CN(C)CCCn1c(SCC(=O)NCc2ccco2)nc2ccccc2c1=O [TG6-23] | > 10 | – | – | – |
| CCN(CC)CCn1c(=S)[nH]c2ccccc2c1=O [TG6-27-2] | 5.5 | 97 | – | – |
| COc1ccc(N(C)CCCNC(=O)c2cc(F)ccc2N)cc1 [TG6-30-2] | 0.2 | – | – | – |
| COc1ccc(N(C)CCCn2c(=S)[nH]c3ccc(F)cc3c2=O)cc1 [TG6-30] | 0.1 | 50 | – | – |
| CN(C)CCCn1c(=O)[nH]c2ccccc2c1=O [TG6-31] | – | – | Not active | – |
| CN1CCC(n2c(=S)[nH]c3ccccc3c2=O)CC1 [TG6-33-2] | 1 | 40 | – | – |
| CN(C)CCn1c(=S)[nH]c2ccccc2c1=O [TG6-35-2] | 4 | 50 | – | – |
| COc1ccc(-c2csc(NC(=O)CSc3nc4ccccc4c(=O)n3CCCN(C)C)n2)cc1 [TG6-36-2] | 11 | 95 | – | – |
| CN(C)CCCn1c(SCC(=O)Nc2nc(-c3ccc(Br)cc3)cs2)nc2ccccc2c1=O [TG6-37-2] | 6 | – | – | 95 |
| CN(C)CCCCCn1c(=S)[nH]c2ccccc2c1=O [TG6-41] | 5 | 50 | – | – |
| CCc1ccc(NC(=O)CSc2nc3ccccc3c(=O)n2CCCN(C)C)cc1 [TG6-43] | > 10 | 60 | – | – |
| CN(C)CCCn1c(SCC(=O)Nc2nc(-c3cccc(F)c3)cs2)nc2ccccc2c1=O [TG6-48] | – | 95 | – | – |

| Compound | IC50 [µM] | Emax (value in parentheses) [%] | NOX2 IC50 (concentration giving half-maximal inhibition) | % inhibition (maximum inhibition achieved at a very high concentration of the compound) (value in parentheses) [%] |
| --- | --- | --- | --- | --- |
| CCN(CC)CCn1c(SCC(=O)Nc2nc(-c3cccc(Br)c3)cs2)nc2ccccc2c1=O [TG6-49] | 2 | 30 | – | – |
| O=c1c2ccccc2[nH]c(=S)n1CCN1CCCC1 [TG6-52] | 2 | 80 | – | – |
| O=c1c2ccccc2[nH]c(=S)n1CCN1CCCCC1 [TG6-53] | 1.5 | 90 | – | – |
| O=c1c2ccccc2[nH]c(=S)n1CCCN1CCOCC1 [TG6-54] | 2 | 80 | – | – |
| CN1CCN(CCCn2c(=S)[nH]c3ccccc3c2=O)CC1 [TG6-55] | 3 | 60 | – | – |
| CCCN(CCC)CCn1c(=S)[nH]c2ccccc2c1=O [TG6-56] | – | – | Not active | – |
| CCN(CC)CCn1c(=S)[nH]c2ccc(Cl)cc2c1=O [TG6-57] | 6 | 80 | – | – |
| CN(C)CCCn1c(SCC(=O)Nc2nc(-c3cccc(Br)c3)cs2)nc2ccc(Cl)cc2c1=O [TG6-58] | 5 | 90 | – | – |
| CSc1nc2ccc(Cl)cc2c(=O)n1CCC[N+](C)(C)C [TG6-59] | 3 | 75 | – | – |
| CN(C)CCCn1c(=S)[nH]c2cc(Cl)ccc2c1=O [TG6-62] | 5 | 90 | – | – |
| COc1cc2[nH]c(=S)n(CCCN(C)C)c(=O)c2cc1OC [TG6-63] | 2 | 60 | – | – |
| CN(C)CCCn1c(=S)[nH]c2cc(F)c(F)cc2c1=O [TG6-64] | 1 | 60 | – | – |
| CN(C)CCCn1c(=S)[nH]c2c(Cl)cc(Cl)cc2c1=O [TG6-65] | – | – | Not active | – |
| O=c1c2cc(Cl)ccc2[nH]c(=S)n1CCN1CCCCC1 [TG6-66] | 1.5 | 50 | – | – |
| CSc1nc2ccccc2c(=O)n1CCC[N+](C)(C)C [TG6-67] | 1.5 | 95 | – | – |
| CN(C)CCCn1c(SC(=O)N2CCN(C)CC2)nc2ccccc2c1=O [TG6-71] | – | – | Not active | – |
| CC(Sc1nc2ccccc2c(=O)n1CCCN(C)C)C(=O)Nc1nc(-c2cccc(Br)c2)cs1 (stereo not shown) [TG6-73] | > 20 | 50 | – | – |
| CN(C)CCCn1c(OCC(=O)N2CCCCC2)nc2ccccc2c1=O [TG6-74] | > 20 | – | – | – |
| CN(C)CCCn1c(OCC(=O)N2CCOCC2)nc2ccccc2c1=O [TG6-76] | > 20 | – | – | – |
| CN(C)CCCn1c(=S)[nH]c2ccc(F)cc2c1=O [TG6-79] | 1.5 | 60 | – | – |
| O=C(CSc1nc2ccccc2c(=O)n1CCN1CCCCC1)Nc1nc(-c2cccc(Br)c2)cs1 [TG6-81] | 1.5 | 70 | – | – |
| O=C(CSc1nc2ccccc2c(=O)n1CCCN1CCOCC1)Nc1nc(-c2cccc(Br)c2)cs1 [TG6-82] | – | – | Not active | – |
| CCSc1nc2ccccc2c(=O)n1CCCN1CCOCC1 [TG6-99-1] | – | – | Not active | – |

Second part, the molecule after the results:

| IC50 [µM] | Emax (value in parentheses) [%] | NOX2 IC50 (concentration giving half-maximal inhibition) | % inhibition (maximum inhibition achieved at a very high concentration of the compound) (value in parentheses) [%] | Compound |
| --- | --- | --- | --- | --- |
| > 10 | – | – | – | O=C(O)CCCn1c(SCC(=O)Nc2nc(-c3ccccc3)cs2)nc2ccccc2c1=O [AS140] |
| > 10 | – | – | – | CCCCn1c(SCC(=O)Nc2cc(-c3ccc(C)cc3)no2)nc2ccccc2c1=O [AS153a] |
| 8 | 100 | – | – | CN(C)CCCn1c(SCC(=O)Nc2cc(-c3ccc(Cl)cc3)no2)nc2ccccc2c1=O [AS154b] |
| 5 | 100 | – | – | CN(C)CCCn1c(SCC(=O)Nc2nc(-c3ccc(Br)cc3)cs2)nc2ccccc2c1=O [AS158a] |
| > 10 | 80 | – | – | CCN(CC)CCCn1c(SCC(=O)Nc2nc(-c3cccc(C(F)(F)F)c3)cs2)nc2ccccc2c1=O [AS165b] |
| > 20 | 40 | – | – | CCCN(CCC)CCCn1c(SCC(=O)Nc2nc(-c3cccc(Br)c3)cs2)nc2ccccc2c1=O [AS173b] |
| – | – | Not active | – | CN(C)CCCn1c(SCC(=O)Nc2nc(-c3cccc(C#N)c3)cs2)nc2ccccc2c1=O [AS188] |
| 3 | 100 | – | – | CN(C)CCCCn1c(SCC(=O)Nc2nc(-c3cccc(Br)c3)cs2)nc2ccccc2c1=O [AS195] |
| 1.8 | – | – | – | Nn1c(=S)[nH]c2ccccc2c1=O [AS-247] |
| 12.7 | – | – | – | Nn1c(SCC(=O)Nc2nc(-c3ccc(Br)cc3)cs2)nc2ccccc2c1=O [AS-248] |
| 15 | – | – | – | CN(C)CCCn1c(SCC(=O)Nc2nc(-c3ccc(Br)cc3)cs2)nc2ccsc2c1=O [AS-256] |
| 7.5 | – | – | – | CN(C)CCCn1c(=S)[nH]c2c(c1=O)CCCC2 [AS-259] |
| 17.5 | – | – | – | CN(C)CCCn1c(SCC(=O)Nc2nc(-c3ccc(Br)cc3)cs2)nc2c(c1=O)CCCC2 [AS-260] |
| 6 | – | – | – | Nn1c(=S)[nH]c2cc(C(=O)O)ccc2c1=O [AS-262] |
| 6 | – | – | – | COC(=O)c1ccc2c(=O)n(N(C)C)c(=S)[nH]c2c1 [AS-266] |
| 2.5 | – | – | – | COc1cc2[nH]c(=S)n(N(C)C)c(=O)c2cc1OC [AS-268] |
| 1 | – | – | – | COc1cc2[nH]c(=S)n(CCCCN)c(=O)c2cc1OC [AS-269] |
| 1 | – | – | – | COc1cc2[nH]c(=S)n(CCCO)c(=O)c2cc1OC [AS-270] |
| 2 | – | – | – | COc1cc2[nH]c(=S)n(O)c(=O)c2cc1OC [AS-271] |
| 0.6 | – | – | – | CCOc1cc2[nH]c(=S)n(N)c(=O)c2cc1OC [AS-278] |
